These results are taken from patent US11912755B2, “Endostatin fragments and variants for use in treating fibrosis” (iBio, Inc., priority 2015, dated 2024).

“Also recorded” adds a separate entry of the source. Ends that are not written are not given here.

Assay [1] has as its system lysyl oxidase (LOX). Conditions: Yamaguchi et al. 2012; cited from earlier work.
Assay [2] concerns human primary skin fibroblasts. The assay can be described thus: Western blot of ECM production in primary skin fibroblasts. Particulars: dermal fibroblasts of healthy controls, SSc or morphea patients. Format: cell-based. The method, then:
(§1) Primary Fibroblast Culture. Human primary lung and skin fibroblasts were cultured. The explanted lungs of normal organ donors, patients with SSc or IPF, and clinically involved skin of SSc patients, a morphea patient and healthy donors were used for primary fibroblast culture. Approximately 2-cm pieces of peripheral lung and skin were minced and fibroblasts were cultured in Dulbecco's modified Eagle's medium (DMEM; Mediatech, Herndon, Va.) supplemented with 10% FBS, penicillin, streptomycin, and anti-mycotic agent, as previously described (Feghali et al., Arthritis Rheum 1999; 42:1451-7). All the cells were used between passages 3-6.
Western Blot Analysis. Cellular lysates were obtained from cultured fibroblasts as previously described (Pilewski et al., Am J Pathol 2005; 166:399-407). […] Cellular lysates were analyzed by Western blot. Signals were detected following incubation with horseradish peroxidase-conjugated secondary antibody and chemiluminescence (Perkin Elmer Life Sciences, Inc., Boston, Mass.). The intensity of individual bands with expected molecular sizes was semi-quantitatively analyzed using the image/J® software available at on the Internet (/rsb.info.nih.gov/ij/index.html), and normalized to individual GAPDH intensity.
(A western blot detects proteins with antibodies after separation by electrophoresis.)

In another assay the test system is HUVECs. The assay can be described thus: Tubular formation assay in MATRIGEL
Format: cell-based, human. Particulars: 50 nM, 24 hours. The method, then: Tubular formation assay. The ability of endostatin peptide to inhibit angiogenesis was examined in tubular formation assay using MATRIGEL® culture. Human umbilical vein endothelial cells (HUVECs) were maintained in endothelial cell basal medium-2 (EBM-2; Clonetics, San Diego, CA) supplemented with EBM-2 MV SINGLEQUOTS®. HUVECs (5×10^4) were cultured in duplicate on 24-well MATRIGEL® plates (BD Biosciences, San Diego, CA) alone, or in the presence of rE or E4 peptide (50 nM) in EBM-2 at 37° C. DMSO was used as vehicle control. After 24 hours, images were captured using a […] microscope. The degree of cord formation was quantified by measuring the area occupied by tubes in 6 random fields per well. Three independent experiments were performed.

In a further assay the test system is IGFBP-3. The assay can be described thus: Genes regulated by E4: IGFBP-3. It is filed as cell-based, human. Particulars: HuF-T; RT-qPCR, protein expression levels. The method, then: (§2) Several experiments have been performed to identify the mechanisms by which E4 exerts its anti-fibrotic activity. Real-time quantitative PCR (qPCR)-based arrays were performed on RNA extracted from primary human lung fibroblasts or mouse lung tissue stimulated with various fibrotic triggers in the absence and presence of E4 treatment in order to identify genes influenced by the endostatin peptide.
(§3) The arrays identified several genes that have been previously implicated in fibrosis to be influenced by E4 treatment. These genes included connective tissue growth factor (CTGF), insulin-like growth factor binding protein (IGFBP)-3, matrix metalloproteases (MMP)-1 and MMP-3, urokinase plasminogen activator (uPA), plasminogen activator inhibitor (PAI)-1, and hepatocyte growth factor (HGF) with levels either decreased or increased in the presence of E4 as shown in TABLE 5.
For orientation: Quantitative PCR measures a nucleic acid by following its amplification.

The test system of assay [3] is lysyl oxidase (LOX). The assay can be described thus: LOX Western blot in conditioned media of primary human lung fibroblasts. Format: cell-based. Conditions: TGF-β followed 30 min later by E4; 48 h. The method, then: FIG. 13. E4 reduces fibrosis in vitro by blocking TGF-β-induced LOX production in primary human lung fibroblasts. Normal lung fibroblasts in passage 4 were treated with vehicle, E4, TGF-β, or TGF-β followed 30 min. later by E4. Media conditioned by the fibroblasts were analyzed using Western blot analysis after 48 hour. Lane 1: Vehicle (DMSO); Lane 2: E-4; Lane 3: TGF-β; Lane 4: TGF-β followed by E4. Similar results were obtained when LOX mRNA levels were examined by real-time PCR.
E4-mediated reduction of LOX was detected also was detected in vitro. Normal lung fibroblasts in passage 4 were treated with vehicle, E4, TGF-β, or TGF-β followed 30 minutes later by E4 (FIG. 13). Media conditioned by the fibroblasts were analyzed using Western blot analysis after 48 hrs. […] Similar results were obtained when LOX mRNA levels were examined by real-time PCR.

A further assay deals with PAI-1. As to the kind of experiment: Genes regulated by E4: PAI-1. Format: cell-based, human. Conditions: HuF-T and mouse bleomycin model of pulmonary fibrosis; RT-qPCR, protein expression. The method, then: as §2, §3
Assay [4] has as its system TGF-β-induced dermal fibrosis in mouse skin. Particulars: single dose concurrently with TGF-β; cited from earlier work.
Another assay deals with ID1. As to the kind of experiment: Real-time PCR of ID1 mRNA in primary human lung fibroblasts. It is filed as cell-based. As to the method:
FIG. 15. […] Real-time PCR analysis was performed to determine the ID1 mRNA levels under the indicated conditions.

Assay [5] relates to human primary lung fibroblasts. The assay can be described thus: Western blot of FN, Col1α1 and α-SMA in primary lung fibroblasts. It is filed as cell-based. The method, then:
as §1
Western Blot Analysis. Cellular lysates were obtained from cultured fibroblasts as previously described (Pilewski et al., Am J Pathol 2005; 166:399-407). Briefly, 2.0×10^5 primary fibroblasts were cultured in 35-mm wells in 0.5% FBS-containing medium supplemented with 10 ng/ml of human recombinant TGF-β or PBS as vehicle control for 24 h, […] In some experiments, endostatin peptides were used without TGF-β stimulation. Cellular lysates were analyzed by Western blot. Signals were detected following incubation with horseradish peroxidase-conjugated secondary antibody and chemiluminescence (Perkin Elmer Life Sciences, Inc., Boston, Mass.). The intensity of individual bands with expected molecular sizes was semi-quantitatively analyzed using the image/J® software available at on the Internet (/rsb.info.nih.gov/ij/index.html), and normalized to individual GAPDH intensity.

A further assay relates to human skin explants. Conditions: single dose concurrently with TGF-β; cited from earlier work.
The subject of assay [6] is bleomycin induced lung fibrosis. Conditions: i.t.; concomitantly or 3 days after bleomycin; cited from earlier work.
Setting [7] is: IPF fibroblasts, 5, 10 and 20 μg/ml, vs vehicle control.

For “E4: SEQ ID NO: 21, amino acids 133-180 of human endostatin with a C-terminal amide (SYCETWRTEAPSATGQASSLLGGRLLGQSAASCHHAYIVLCIENSFMT-NH2; cysteine pairing not given here)”, the “levels of lysyl oxidase (LOX)” value in the assay on lysyl oxidase (LOX) [1] is “reduces”. The “TGF-β-induced ECM production” value in assay [2] was “reduced”. For the same substance, the “inhibition of tubular structure formation (anti-angiogenic activity)” value in the assay on HUVECs is “modest and low and minimal anti-angiogenic activity”. Also, in the assay with IGFBP-3, the “Effect of E4 peptide on IGFBP-3” value is “reduces; also recorded: Decrease”. In addition, the “TGF-β-induced LOX production” value in the assay on lysyl oxidase (LOX) [3] is “significantly reduced; also recorded: blocking”. Besides, in the assay with PAI-1, the “Effect of E4 peptide on PAI-1” value is “reduces; also recorded: Decrease”. For the same substance, the skin thickness result in [4] was “significantly decreased skin”. The ID1 levels result in the assay on ID1 is “increases; also recorded: inducing expression”. Besides, in [5] (setting [7]), the Col1α1 levels result is given as “dose-dependently reduced” and the FN levels entry was “modest effect”. Also, the “FN and Col1α1 levels” value in assay [5] (fibrotic (IPF) lung fibroblasts, absence of TGF-β stimulation) is “decreased”. Besides, the “FN and Col1α1 levels” value in assay [5] (normal human lung fibroblasts, TGF-β 24 h, then 5 μg/ml for 48 h) is “significantly suppressed”. Moreover, the “TGF-β-induced α-SMA levels” value in [5] (normal lung fibroblasts) is “decreased”. Besides, in the assay on human skin explants, the collagen increase entry is “skin thickness and attenuated”; the skin thickness result is listed as “TGF-β, significantly decreased”. The “pulmonary fibrosis (microscopy, hydroxyproline/collagen)” value in assay [6] is recorded as “E4 significantly decreased”.
